Laboratory results from patent publication US11865134B2, “Treatment of inflammation with glucocorticoids and angiopoietin-like 7 (ANGPTL7) inhibitors” (Regeneron Pharmaceuticals, Inc., priority 2021, dated 2024).

Legend:
Assay type in all cases: in vivo
ANGPTL7 WT mice = assay: DEX-Ac-induced ocular hypertension in ANGPTL7 WT mice (IOP measurement); details: weekly periocular CF injections of DEX-Ac in both eyes, versus vehicle-treated, week 1 to 6
From the text: (§1) IOP measurements of DEX-Ac-treated (n=18) versus vehicle-treated (n=6) mice show IOP elevation from week 1 to 6; **p<0.01, ***p<0.001, ****p<0.0001.

ANGPTL7 KO mice = assay: DEX-Ac-induced ocular hypertension in ANGPTL7 KO mice (IOP measurement); details: weekly periocular CF injections of DEX-Ac in both eyes, versus vehicle-treated, week 1 to week 6
From the text: as §1

ANGPTL7 = ANGPTL7 siRNA in DEX-Ac-induced ocular hypertension (steroid-induced IOP) in wild-type mice; details: WT mice; weekly periocular CF injections of DEX-Ac to both eyes; compared with vehicle-treated mice; starting 6-days post-injection
From the text: dsRNA were further assessed for their ability to reduce steroid induced IOP in vivo in wild-type mice. […] Mice were divided into following groups as shown in FIG. 4: a) Vehicle (n=4), b) Vehicle+PBS (n=6), c) DEX-Ac (n=12), d) DEX-Ac+siRNA #3 (n=14), and e) DEX-Ac+siRNA #5 (n=14). […] At Day 22, siRNA targeting ANGPTL7 (#3 and #5) were intravitreally injected into groups: d and e (DEX-Ac+siRNA #3 and DEX-Ac+siRNA #5) and IOP measurements continued to be recorded.

`CC(=O)OCC(=O)[C@@]1(O)[C@H](C)C[C@H]2[C@@H]3CCC4=CC(=O)C=C[C@]4(C)[C@@]3(F)[C@@H](O)C[C@@]21C` [DEX-Ac, dexamethasone-21-acetate] was tested, and the IOP elevation (ANGPTL7 WT mice) was “significantly elevated IOP”, the IOP elevation (ANGPTL7 KO mice) was “did not elevate IOP” and the IOP elevation (ANGPTL7) was “rapid and significantly higher”.
